Assay type in all cases: in vivo
Assay [1] has as its system Musca domestica. In words: Pesticidal test against Musca domestica, filter paper with sucrose bait (Test Example 6). The note with it: 500 ppm, 0.7 ml on filter paper, ten female adults, after 24 hours, read-out: mortality. The procedure: Ten female adults of Musca domestics (house fly) were set free in the polyethylene cup, which was then kept covered. After 24 hours, their survival was examined to determine the mortality.

In assay [2] the test system is Ctenocephalides felis. In words: Pesticidal test against Ctenocephalides felis, treated filter paper (Test Example 9). The note with it: 200 mg/m^2 on filter paper (acetone solution), twenty adults, after 24 hours. The procedure:
Each of the compound 8, 15, 19, 21 and 34 was dissolved in acetone to give a 0.2 ml solution of 0.114% w/w, which was uniformly treated on a filter paper having 3.8cm in diameter, and air-dried. The amount of active ingredient was 200 mg/m^2. The filter paper was filled in a lid of a 200 ml glass bottle. Twenty adult Ctenocephalides felis (cat flea) were released in the glass bottle, which was followed by covering with the lid. The glass bottle was upset for making the fleas contact with the filter paper. After 24 hours, the mortality was examined.

For assay [3], the system named is Leptinotarsa decemlineata. Description: Pesticidal test against Leptinotarsa decemlineata, eggplant leaf dip (Test Example 5). The note with it: foliar, 120 h, eggplant leaf immersed 1 minute, second-instar larvae, 5th day after release, read-out: rate of dead or moribund pests. The procedure:
A leaf of eggplant was immersed in the test liquid, which had been prepared as described above, for 1 minute. After the test liquid treated the leaf of eggplant was dried with a paper towel, the leaf of eggplant was placed in a polyethylene cup of 3 cm in diameter. One second-instar larvae of Leptinotarsa decemlineata (Colorado potato beetle) were set free in the polyethylene cup, which was then kept covered and left in a greenhouse at 25° C. This test was done ten times for one compound. On the 5th day after the release of Leptinotarsa decemlineata, the number of dead pests and moribund pests was examined.

The test system of assay [4] is Eysarcoris lewisi. Description: Pesticidal test against Eysarcoris lewisi, treated peanut seeds (Test Example 4). As to conditions: 168 h, peanut seeds immersed 1 minute, adults, 7th day after release, read-out: rate of dead or moribund pests. As for the experimental part: Then, 3 to 5 seeds of peanut were immersed in the test liquid, which had been prepared as described above, for 1 minute. After the test liquid treated the seeds of peanut was dried with a paper towel, a filter paper moistened with 1 ml of water was placed on a bottom of polyethylene cup and then the seeds of peanut was placed on it. Six to eight adults of Eysarcoris lewisi were set free in the polyethylene cup, which was then kept covered and left in a greenhouse at 25° C. On the 7th day after the release of Eysarcoris lewisi, the number of dead pests and moribund pests was examined.

Broadly, the mortality is the percentage killed. `N#CC(C#N)(CCC(F)(F)C(F)(F)F)Cc1ccc(C(F)(F)F)cc1` [Compound 8, 2-(3,3,4,4,4-pentafluorobutyl)-2-(4-(trifluoromethyl)benzyl)malononitrile]: in assay [1], the mortality at 500 ppm came out at 100%. This compound also displayed a mortality at 200 mg/m2 in assay [2] of 100%. For the same compound, in assay [3], the pest or weed control at 1.6 ppm is > 80%. Also, the pest or weed control at 100 ppm in assay [4] stood at 100%.

On to `N#CC(C#N)(CCC(F)(F)F)Cc1ccc(Cl)cc1` [Compound 15, 2-(4-chlorobenzyl)-2-(3,3,3-trifluoropropyl)malononitrile], for which, in assay [1], the mortality at 500 ppm amounted to 100%. Moreover, the mortality at 200 mg/m2 in assay [2] was 100%. The pest or weed control at 1.6 ppm in assay [3] is > 80%.

For the compound `N#CC(C#N)(CCC(F)(F)F)Cc1ccc(F)c(F)c1` [Compound 19, 2-(3,4-difluorobenzyl)-2-(3,3,3-trifluoropropyl)malononitrile], in assay [1], the mortality at 500 ppm amounted to 100%. In assay [2], the mortality at 200 mg/m2 is 100%.

`N#CC(C#N)(CCC(F)(F)F)Cc1ccc(Cl)c(Cl)c1` [Compound 21, 2-(3,4-dichlorobenzyl)-2-(3,3,3-trifluoropropyl)malononitrile]: in assay [1], the mortality at 500 ppm stood at 100%. The mortality at 200 mg/m2 in assay [2] is 100%. Also, the pest or weed control at 1.6 ppm in assay [3] is > 80%. Moreover, the pest or weed control at 100 ppm in assay [4] came out at 100%.

`CSc1ccc(CC(C#N)(C#N)CCC(F)(F)F)cc1` [Compound 34, 2-(4-(methylthio)benzyl)-2-(3,3,3-trifluoropropyl)malononitrile]: the mortality at 500 ppm in assay [1] turned out to be 100%. Further, in assay [2], the mortality at 200 mg/m2 was 100%.

The values above are taken from US7402691B2, “Malononitrile compounds and their use as pesticides” (Sumitomo Chemical Company, Limited, priority 2001, dated 2008).
